Measurements from PubChem BioAssay (NCI).
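Five concentrations, 48 hours, 96-well plates. GI50 is the concentration that inhibits growth by half. TGI: total growth inhibition.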

Key:
Experiment in all cases: inhibition of tumour cell growth, NCI panel, 48 h
SR leukemia = tested on: SR leukemia
A498 renal = tested on: A498 renal
MOLT-4 leukemia = tested on: MOLT-4 leukemia
CAKI-1 renal = tested on: CAKI-1 renal
OVCAR-3 ovarian = tested on: OVCAR-3 ovarian
OVCAR-4 ovarian = tested on: OVCAR-4 ovarian
IGROV1 ovarian = tested on: IGROV1 ovarian
NCI-H226 lung = tested on: NCI-H226 lung
ACHN renal = tested on: ACHN renal
OVCAR-5 ovarian = tested on: OVCAR-5 ovarian

Row | SMILES | TGI (SR leukemia) | TGI (A498 renal) | TGI (MOLT-4 leukemia) | TGI (CAKI-1 renal) | TGI (OVCAR-3 ovarian) | TGI (OVCAR-4 ovarian) | TGI (IGROV1 ovarian) | TGI (NCI-H226 lung) | TGI (ACHN renal) | TGI (OVCAR-5 ovarian) | GI50 (A498 renal) | GI50 (MOLT-4 leukemia) | GI50 (CAKI-1 renal) | GI50 (OVCAR-3 ovarian) | GI50 (OVCAR-4 ovarian) | GI50 (IGROV1 ovarian) | GI50 (NCI-H226 lung) | GI50 (ACHN renal) | GI50 (OVCAR-5 ovarian) | GI50 (SR leukemia)
1 | Cc1ccc(-c2nnc(-c3ccc4ccccc4c3)o2)cc1 | > 68.4 µM | > 100 µM | > 26.6 µM | > 86.8 µM | > 100 µM | > 100 µM | > 100 µM | 99.9 µM | > 100 µM | > 100 µM | – | – | – | – | – | – | – | – | – | –
2 | CC1(C)COC(c2ccc(C(F)(F)F)cc2C(O)c2ccc3ccccc3c2)=N1 (centres undefined) | > 10 µM | > 100 µM | > 100 µM | > 100 µM | > 100 µM | > 100 µM | > 100 µM | > 100 µM | > 100 µM | > 100 µM | > 100 µM | > 100 µM | > 10 µM | > 100 µM | > 100 µM | > 100 µM | > 10 µM | > 100 µM | > 100 µM | –
3 | Cc1cc(=O)n2[nH]c(-c3ccc(C(C)(C)C)cc3)cc2n1 | > 100 µM | 36.9 µM | > 100 µM | 32.7 µM | 43.5 µM | > 100 µM | > 100 µM | > 100 µM | > 100 µM | > 100 µM | 1.54 µM | 6.56 µM | 2.6 µM | 3.24 µM | 12.7 µM | 7.36 µM | 5.28 µM | 5.65 µM | 17.7 µM | 8.03 µM
4 | Cc1nc2c(nc1C)C(=O)c1ccccc1C2=O | 28.2 µM | 8.98 µM | 48 µM | 61.9 µM | 13.3 µM | 14.1 µM | 27.2 µM | 13.3 µM | 35.4 µM | 9.62 µM | – | – | – | – | – | – | – | – | – | –
5 | O[C@H]1[C@H]2c3cc4c(cc3CN3CCC(=C[C@@H]1O)[C@H]23)OCO4 | 4.24 µM | 12.8 µM | 4.65 µM | 4.34 µM | 11.9 µM | 8.4 µM | 0.874 µM | 29.6 µM | 7.07 µM | 22 µM | – | – | – | – | – | – | – | – | – | –
6 | Oc1ccc(Cl)cc1-c1cc(-c2ccccc2Cl)[nH]n1 | > 100 µM | > 100 µM | > 100 µM | > 100 µM | > 100 µM | > 100 µM | > 100 µM | > 100 µM | > 100 µM | > 100 µM | 95.7 µM | 5.38 µM | 2.87 µM | 2.37 µM | 0.28 µM | 1.66 µM | 13.8 µM | 8.17 µM | 8.88 µM | 4.12 µM
7 | COc1cc2nc(C)nc(N[C@H](C)c3cc(N)cc(C(F)(F)F)c3)c2cc1O[C@H]1CCOC1 | 29.2 µM | 7.84 µM | 41.5 µM | 24.1 µM | 38.4 µM | 55.1 µM | 20.3 µM | 38.8 µM | 23.9 µM | 28.5 µM | 0.109 µM | 12.3 µM | 7.14 µM | 15.6 µM | 17 µM | 2.25 µM | 16.9 µM | 11.6 µM | 13.4 µM | 2.25 µM
